Experimental data reported in patent US20180284095A1, “BIOMARKERS ASSOCIATED WITH LSD1 INHIBITORS AND USES THEREOF” (Oryzon Genomics, S.A., priority 2015, published 2018).

Columns and labels:
Assay type in all cases: in vivo, mouse
S100A9 [1] = test: Illumina RNA sequencing, hippocampus of SAMP8 mice (Example 4)
Procedure: Illumina dye sequencing begins with the attachment of cDNA molecules to primers on a slide, followed by amplification of that DNA to produce local colonies. The four types (adenine, cytosine, guanine, and thymine) of reversible terminate bases are added, each fluorescently labeled with a different color and attached with a blocking group. The four bases then compete for binding sites on the template cDNA to be sequenced and non-incorporated molecules are washed away. After each synthesis, a laser is used to excite the dyes and a photograph of the incorporated base is taken. A chemical deblocking step is then used in the removal of the 3′ terminal blocking group and the dye in a single step. The process is repeated until the full cDNA molecule is sequenced.
Illumina RNA-Seq technology records the numerical frequency of sequences in a library population. 50 bp single reads with multiples of 30M single reads are guaranteed using Illumina sequencing technology. The RNA-Seq reads are aligned to the reference genome or reference transcriptome using Bowtie generating genome/transcriptome alignments. TopHat identifies the potential exon-exon splice junctions of the initial alignment. Then Cufflinks identifies and quantifies the transcripts from the preprocessed RNA-Seq alignment assembly. After this, Cuffmerge merges the identified transcript pieces to full length transcripts and annotates the transcripts based on the given annotations. Finally, merged transcripts from two or more samples/conditions are compared using Cuffdiff to determine the differential expression levels at transcript and gene level including a measure of significance between samples/conditions.
Differential gene expression. Operating on the RNA-Seq alignments and Cuffinks processing, Cuffdiff tracks the mapped reads and determines the fragment per kilo base per million mapped reads (FPKM) for each transcript in all the samples. Primary transcripts and gene FPKMs are then computed by adding up the FPKMs of each primary transcript group or gene group. […]

S100A8 = test: qRT-PCR, hippocampus of SAMP8 mice (Example 5); conditions: SAMP8 female mice
Description: (§1) qRT-PCR is a variant of the PCR (Polymerase Chain Reaction) method that permits the simultaneous exponential amplification and detection of specific cDNA fragments. The Taqman gene expression assays employ the principle of doubly labeled hydrolysis probes. The probes are marked with a fluorescent moiety at their 5′ end and with a quencher moiety at the 3′ end, which prevents the generation of fluorescence according to the Förster energy transfer principle.
(§2) During the amplification process, the hydrolysis probe hybridizes to its complementary sequence in the target amplicon. During each cycle, the Taq polymerase initiates the production of a copy of the target sequence starting from the primer. When the Taq polymerase reaches the hydrolysis probe, its 5′-3′ exonuclease activity fragments the hydrolysis probe, and liberates the fluorescent group from the quencher moiety, resulting in the emission of a fluorescent signal.
(§3) In the exponential phase of the amplification reaction, the intensity of the fluorescence is directly proportional to the quantity of PCR product formed. The LightCycler® 480 Software determines the “crossing point” (Cp), i.e. the point where the reaction's fluorescence reaches the maximum of the second derivative of the amplification curve, which corresponds to the point where the acceleration of the fluorescence signal is at its maximum. […] The 2-Cp values are proportional to the target mRNA concentration in the original RNA sample.
(§4) Samples from animals receiving treatment for 2 months and 4 months were processed and statistically analyzed together. After extraction (RNeasy Mini KIT; QIAGEN), total RNA was reverse transcribed to obtain 1st strand cDNA (High Capacity RNA-to-cDNA Master Mix; Applied Biosystems). A serial dilution of 1st strand product from hippocampus was used to perform triplicate qRT-PCR (Taqman gene expression assay, Life technologies) reactions to analyze the Cp values of S100A8 and S100A9. Cp increase was normalized relative to the expression level of an endogenous reference gene (GADPH).

S100A9 [2] = test: qRT-PCR, hippocampus of SAMP8 mice (Example 5); conditions: 2 or 4 months
Description: as §1, §2, §3, §4

In the case of “(−) 5-((((trans)-2-(4-(benzyloxy)phenyl)cyclopropyl)amino)methyl)-1,3,4-oxadiazol-2-amine [Compound 1]”, the “Female FPKM S100A9” value (S100A9 [1]; hippocampus pool, SAMP8 females, 0.96 mg/kg/day, 4 months) is reported as 0.61 FPKM, the “Male FPKM S100A9” value (S100A9 [1]; hippocampus pool, SAMP8 males, 0.32 mg/kg/day, 4 months) is reported as 1.03 FPKM and the “S100A9 expression (RNA-seq)” value (S100A9 [1]; hippocampus, SAMP8, vs vehicle-treated animals of the same sex) is reported as “down-regulated S100A9 expression”. The “S100A8 expression (qRT-PCR)” value (S100A8) was “down-regulated S100A8 expression tendency”, the “S100A9 expression (Δ Cp, qRT-PCR)” value (S100A9 [2]; SAMP8 females, 0.96 mg/kg/day (p<0.001) and 3.2 mg/kg/day (p<0.001)) was “down-regulated S100A9 expression in a dose-dependent fashion” and the “S100A9 expression (Δ Cp, qRT-PCR)” value (S100A9 [2]; SAMP8 females, 0.96 mg/kg/day (p<0.001) and 3.2 mg/kg/day (p<0.001), listed as compound 1) was “reduction of S100A9 expression”. The “S100A9 expression (Δ Cp, qRT-PCR)” value (S100A9 [2]; SAMP8 males, 0.96 mg/kg (p<0.001), 0.96 mg/kg) was “down-regulated S100A9 expression” and the “S100A9 expression (Δ Cp, qRT-PCR)” value (S100A9 [2]; SAMP8 males, 0.96 mg/kg (p<0.001), listed as compound 1, 0.96 mg/kg) was “reduction of S100A9 expression”.
